{"source": "patent US12497614B2", "about": "“Compositions and methods for editing beta-globin for treatment of hemaglobinopathies” (Vertex Pharmaceuticals Incorporated, priority 2020, dated 2025)", "key": {"[1]": {"test_system": "HBB gene locus in CD34+ HSPCs", "assay": "HDR efficiency with DNA-PK inhibitors for editing the HBB gene in CD34+ HSPCs; NGS (Example 4)", "type": "cell-based, human", "conditions": "for % HDR / % INDELs: 48 hours", "description": "The cells were transduced with AAV donor template for 1 hour at 37° C. prior to electroporation. AAV-encoded homology donor template referred to as “AAV.310”, which is identified by sequence in Table 8. The AAV.310 donor template encodes a SCD mutation, specifically valine at the 6th codon downstream the HBB start codon (E6V). The cells were treated with AAV at a dose of 10,000 MOI.\nEdited cells were evaluated for viability using trypan blue, and for incorporation of gene-edits at 2 days post-electroporation. The efficiency of HDR repair for introducing an E6V mutation in the HBB gene was quantified by NGS assay as described in Example 1, and the frequency of INDELs induced at the T107 cut site was also evaluated by NGS analysis.\nThe INDELs species identified in edited cells were further evaluated to determine frequency of repair by NHEJ or MMEJ repair pathways. An INDEL of ±1 nt was considered due to NHEJ repair; a deletion of −9 nt was considered due to MMEJ repair based on the microhomology present on either side of the T107 cut site. Based on percentage of total reads corresponding to these INDEL species, the ratio of gene edits due to NHEJ and MMEJ repair was evaluated. […] Thus, reduced frequency of INDELs with treatment of compound 296 or i53 is largely due to suppression of the NHEJ repair pathway."}, "CD34+ HSPCs [2]": {"test_system": "CD34+ HSPCs", "assay": "Cell growth and viability (trypan blue) of edited CD34+ HSPCs during differentiation (Example 5)", "conditions": "day 0 to day 18 post-editing; inhibitor 1 or 3 μM, i53 1 μg mRNA; data not shown", "description": "Briefly, frozen CD34+ HSPCs isolated from Plerixafor mobilized peripheral blood, obtained from healthy human donors were thawed. The cells were seeded in CD34 cell media at a cell density of 2×10^5 cells/mL. Cells were cultured at 37° C. under normoxic conditions (i.e., oxygen 20%). Gene-editing was performed following two days of in vitro culture. For editing, 5×10^5 CD34+ HSPCs were electroporated with RNP containing 200 μg/ml Cas9 and 200 μg/ml T107 sgRNA. […] The cells were transduced with AAV.310, 1 hour prior to electroporation, at a dose of 10,000 MOI. The cells were plated in CD34 cell medium containing Compound 296 or Compound 984 immediately following the electroporation, at a concentration of 1 μM or 3 μM for 48 hours. […] Post electroporation cells were resuspended in CD34 cell medium at a density of 2-5×10^5 cells/ml and incubated at 37° C. for 48 hours.\nFollowing editing, cells were differentiated to erythrocytes. Briefly, cells were plated in fresh CD34 media at a density of 2×10^5 cells/mL, and re-plated at similar density in fresh CD34 media on days 3 and 5 post-editing. On day 7 and 10 post-editing, the cells were incubated in Phase II media at a density of 2.5×10^5 and 1×10^6 cells/mL respectively. On day 12 post-editing, the cells were incubated in Phase III media at a density of 1×10^6 cells/mL. On day 14 cells were plated at a density of 2×10^6 cells/ml in Phase III media and maintained till day 18 at 37° C. Cell growth was measured at various time points between day 0 and day 18 post-editing, and the percentage of viable cells was measured by staining with tryphan blue."}, "[3]": {"test_system": "HBB gene locus and mRNA transcribed from HBB in CD34+ HSPCs", "assay": "Editing efficiency in genomic DNA and in HBB mRNA (Example 5)", "type": "cell-based, human", "conditions": "genomic DNA, 48 hours post electroporation; 1 μM or 3 μM", "description": "At 48 hours post electroporation genomic DNA was isolated from the edited cells and HDR to introduce the sickle mutation and INDEL frequencies were evaluated using next gene sequencing and computational analysis. On day 10 of differentiation, incorporation of the SCD mutation and frequency of INDELs present in mRNA transcribed from the HBB gene locus of edited cells was determined using RNA amplicon sequencing."}, "CD34+ HSPCs [4]": {"test_system": "CD34+ HSPCs", "assay": "Globin and hemoglobin analysis by HPLC on day 18 of differentiation (Example 5)", "type": "cell-based, human", "conditions": "T107 RNP+AAV.310 alone or combined with the inhibitor", "description": "(§1) Following editing, cells were differentiated to erythrocytes.\nAdditionally, on day 18 post-editing, expression of globin monomers was assessed in differentiated cells by HPLC as described in Example 3. […] Accordingly, the editing was sufficient to both introduce the SCD mutation in HBB and result in expression of sickle globin.\nFurthermore, production of hemoglobin tetramers was also evaluated by HPLC. The analysis included quantification of HbS tetramer containing sickle-globin (α2β(E6V)2), HbF tetramer (α2γ2), HbA (α2β2), and HbA2 (α2δ2) produced by edited cells. […] Thus, the editing was also sufficient to alter hemoglobin output following in vitro differentiation."}, "CD34+ HSPCs [5]": {"test_system": "CD34+ HSPCs", "assay": "Erythrocyte functionality: enucleation and cell-surface markers by flow cytometry (Example 5)", "type": "cell-based, human", "conditions": "T107 RNP+AAV.310 alone or combined with the inhibitor", "description": "as §1\nThe ability of edited cells to differentiate to functional erythrocytes was assessed by determining expression of erythrocyte-associated cell surface markers and enucleation using flow cytometry on day 12 and 18 post editing. Briefly, 4×10^5 cells were obtained, and half were stained for erythrocyte cell-surface markers and half were used for detection of enucleation. For staining cell-surface markers, the cells were incubated in PBS containing 1% human serum albumin (PBS-A) and an antibody cocktail of anti-CD233(BRIC6-Band3)-FITC, anti-CD71-PE, anti-CD235a(GlyA)-PE/Cy7, and anti-CD49d (α4)-VioBlue. For detection of enucleation, 2 drops of NucRed nuclear staining reagent was added to 1 mL PBS-A, and 100 μL was added to plated cells. Following incubation, both cell samples were labeled with Sytox Blue solution (1:1000 dilution in PBS-A) for live/dead analysis. Samples were then assessed by flow cytometry"}, "HBB gene in CD34+ HSPCs": {"test_system": "HBB gene in CD34+ HSPCs", "assay": "Comparison of guides targeting intron 1 of HBB with AAV donor templates (Example 8)", "type": "cell-based, human", "conditions": "with each of AAV.309, AAV.310, AAV.311; day 2 post-editing", "description": "Healthy donor CD34+ HSPCs derived from plerixafor-mobilized peripheral blood were cultured as described in Example 1 for two days prior to editing. Editing was performed using 1×10^6 CD34+ HSPCs per treatment group. The cells were electroporated with RNP containing the following 20 μg SpCas9 and 20 μg T107 sgRNA, 20 μg T223 sgRNA, or 20 μg R02 sgRNA. […] The cells were transduced with AAV6 donor templates encoding a SCD mutation (AAV.309; AAV.310; AAV.311) by incubating the cells with AAV at a dose of 10,000 MOI for one hour prior to electroporation. Control cells were transduced with AAV only and electroporated in the absence of RNP.\nOn day 2 post-editing, the efficiency of HDR repair for inducing a SCD mutation in the HBB gene was quantified by NGS assay as described in Example 1."}, "[6]": {"test_system": "genomic sites undergoing off-target cleavage", "assay": "GUIDE-Seq screen of candidate off-target sites", "type": "cell-based, human", "text": "The second approach was to screen candidate off-target sites using GUIDE-Seq (see, e.g., Tsai et al (2015) NAT. BIOTECHNOL. 33:187). Based on this approach, the following number of genomic sites were identified as undergoing off-target cleavage per each gRNA: • (i) 36 GUIDE-Seq off-target sites for R02 gRNA; • (ii) 12 GUIDE-Seq off-target sites for […]; and • (iii) 43 GUIDE-Seq off-target sites for T223 gRNA."}, "[7]": {"conditions": "T107 RNP + AAV.310 + 0.012 μM compound"}, "[8]": {"conditions": "T107 RNP + AAV.310 + 0.037 μM compound"}, "[9]": {"conditions": "T107 RNP + AAV.310 + 0.04 μM compound"}, "[10]": {"conditions": "T107 RNP + AAV.310 + 3.3 μM compound"}, "[11]": {"conditions": "T107 RNP + AAV.310 + 10 μM compound"}}, "note": "Strand notation (5' to 3'): a small letter for the sugar, then the base; units joined by * are phosphorothioate-linked, units joined directly phosphodiester-linked; [ ] holds rarer units or linkages, { } end groups; capitals alone tell only the bases. m = 2'-O-methyl; r = 2'-OH (RNA)"}
{"molecule": "CNC(=O)c1ccnc2c([C@H](C)CNc3cc(-c4cnc(C)nc4)ncn3)cccc12", "note": "[Compound 296]", "values": [{"measurement": "% HDR", "setting": "[1]; [7]", "result": 40, "unit": "%"}, {"measurement": "% INDELs", "setting": "[1]; [7]", "result": 45, "unit": "%"}, {"measurement": "% HDR", "setting": "[1]; [8]", "result": 39, "unit": "%"}, {"measurement": "% INDELs", "setting": "[1]; [8]", "result": 46, "unit": "%"}, {"measurement": "% HDR", "setting": "[1]; [9]", "result": 40, "unit": "%"}, {"measurement": "% INDELs", "setting": "[1]; [9]", "result": 42, "unit": "%"}, {"measurement": "% HDR", "setting": "[1]; [10]", "result": 55, "unit": "%"}, {"measurement": "% INDELs", "setting": "[1]; [10]", "result": 27, "unit": "%"}, {"measurement": "% HDR", "setting": "[1]; [11]", "result": 57, "unit": "%"}, {"measurement": "% INDELs", "setting": "[1]; [11]", "result": 25, "unit": "%"}, {"measurement": "reduction of the frequency of INDELs at the T107 cut site compared to control cells", "setting": "[1]; T107 RNP+AAV.310 with DNA-PK inhibitor", "result": "approximately 1.6 fold"}, {"measurement": "INDEL species due to MMEJ repair (deletion of −9 nt)", "setting": "[1]; T107 RNP+AAV.310, Compound 296 at 10 μM, i53 at 1 μg mRNA", "result": "no substantial reduction"}, {"measurement": "decrease in INDELs due to NHEJ repair (INDEL of ±1 nt)", "setting": "[1]; T107 RNP+AAV.310, Compound 296 at 10 μM, i53 at 1 μg mRNA, vs DMSO", "result": "≤ 3", "unit": "fold"}, {"measurement": "cell growth over time or percent viability vs T107 RNP+AAV.310 edited cells", "setting": "CD34+ HSPCs [2]", "result": "No difference"}, {"measurement": "frequency of INDELs at the T107 cut site compared to cells edited with T107 RNP+AAV.310 only", "setting": "[3]", "result": "decreased"}, {"measurement": "level of HDR repair compared to cells edited with T107 RNP+AAV.310 only", "setting": "[3]", "result": "increased"}, {"measurement": "HbA production compared to control cells", "setting": "CD34+ HSPCs [4]", "result": "decreased"}, {"measurement": "HbS production compared to control cells", "setting": "CD34+ HSPCs [4]", "result": "increased"}, {"measurement": "expression of sickle-globin compared to control cells", "setting": "CD34+ HSPCs [4]", "result": "increased"}, {"measurement": "levels of enucleation vs control cells", "setting": "CD34+ HSPCs [5]", "result": "comparable"}]}
{"molecule": "T107 gRNA: intron-targeting gRNA, spacer SEQ ID NO: 3, sgRNA SEQ ID NO: 4 (nucleic acid) guide: mU*mC*mC*rArCrArUrGrCrCrCrArGrUrUrUrCrUrArUrGrUrUrUrUrArGrArGrCrUrArGrArArArUrArGrCrArArGrUrUrArArArArUrArArGrGrCrUrArGrUrCrCrGrUrUrArUrCrArArCrUrUrGrArArArArArGrUrGrGrCrArCrCrGrArGrUrCrGrGrUrGrCmU*mU*mU*rU", "values": [{"measurement": "levels of HDR for introducing the SCD mutation", "setting": "HBB gene in CD34+ HSPCs", "result": "similar"}, {"measurement": "GUIDE-Seq off-target sites (number)", "setting": "[6]", "result": 12}]}
{"molecule": "T223 gRNA: intron-targeting gRNA, spacer SEQ ID NO: 51, sgRNA SEQ ID NO: 52 (nucleic acid) guide: mU*mA*mA*rGrGrArGrArCrCrArArUrArGrArArArCrUrGrUrUrUrUrArGrArGrCrUrArGrArArArUrArGrCrArArGrUrUrArArArArUrArArGrGrCrUrArGrUrCrCrGrUrUrArUrCrArArCrUrUrGrArArArArArGrUrGrGrCrArCrCrGrArGrUrCrGrGrUrGrCmU*mU*mU*rU", "values": [{"measurement": "levels of HDR for introducing the SCD mutation", "setting": "HBB gene in CD34+ HSPCs", "result": "similar"}, {"measurement": "GUIDE-Seq off-target sites (number)", "setting": "[6]", "result": 43}]}
{"molecule": "R02 gRNA: exon-targeting gRNA for exon 1 of HBB, spacer SEQ ID NO: 14, sgRNA SEQ ID NO: 15 (nucleic acid) guide: mC*mU*mU*rGrCrCrCrCrArCrArGrGrGrCrArGrUrArArGrUrUrUrUrArGrArGrCrUrArGrArArArUrArGrCrArArGrUrUrArArArArUrArArGrGrCrUrArGrUrCrCrGrUrUrArUrCrArArCrUrUrGrArArArArArGrUrGrGrCrArCrCrGrArGrUrCrGrGrUrGrCmU*mU*mU*rU", "values": [{"measurement": "GUIDE-Seq off-target sites (number)", "setting": "[6]", "result": 36}]}
